The numbers were not newly measured in US4886800A, “Substituted cinnoline derivatives as CNS depressants” (ICI Americas Inc., priority 1985, dated 1989), which cites them from elsewhere.

For the series, the system named is specific [3H]flunitrazepam binding, lysed mitochondrial-synaptosomal (P2) fraction of cerebral cortex. To be noted: reference behaviour stated in the description of the test.

In the case of `CCCCNc1c(C(=O)OCC)cnc2c1cnn2CC` [cartazolate], the “effect on flunitrazepam binding” value is “enchancement of the binding”.

On to `CCCCNc1c(C(=O)OCC)c(C)nc2c1cnn2CC` [tracazolate], for which the “effect on flunitrazepam binding” value was “enchancement of the binding”.
